Consider two compounds from patent US6537744B1, “Use of biomarkers in saliva to evaluate the toxicity of agents and the function of tissues in both biomedical and environmental applications” (priority 1995, dated 2003).

“And” between values parts separate entries of the source, which are not always exact repeats. Equal entries are not always repeated.

Experiment [1] relates to carboxylase in human saliva. Put plainly: Inhibition of carboxylase in human saliva (p-nitrophenylvalerate hydrolysis, 400 nm). The class given is biochemical. As to conditions: for inhibition of carboxylase (in words): human saliva. On the procedure: The carboxylase activity in saliva samples is monitored by the hydrolysis of p-nitrophenylvalerate to the readily detectable p-nitrophenol. The concentration of p-nitrophenol in the sample is measured spectrophotometrically at 400 nm, and the value is calculated from p-nitrophenol standard curve (Table 3 and FIG. 4). Values for carboxylase activity in saliva (nmol. min-1 per mL of saliva) are presented in Tables 4-8 and showing in FIG. 5 and FIG. 6. The average specific activity for carboxylase in human saliva is about 47 nmol min^−1 per mL.
The assay for carboxylase consists of 4 mL of tris-HCl buffer (pH 7.0) that contain 25 μL of p-nitrophenylvalerate (13.8 mg/mL of alcohol) and 50-500 μL of human saliva. […] In the inhibition study, the agent is incubated with saliva for about 15-20 minutes before the addition of p-nitrophenylvalerate. Organophosphate concentration is verified by gas chromatography using standard methods as described by Knaak et al. (1993).

For experiment [2], the system named is acetylcholinesterase in human saliva. Briefly: Inhibition of acetylcholinesterase in human saliva (acetylthiocholine iodide/DTNB, 405 nm). Format: biochemical. The settings on record: for inhibition of acetylcholinesterase (in words): human saliva. Here is the method: The hydrolysis of acetylthiocholine iodide (an analog of acetylcholine iodides) by the saliva enzyme or enzymes is measured by generating the yellow 5-thio-2-nitrobenzoate with an absorbance maximum at 405 nm. The rate of change of absorbance is directly proportional to acetylcholinesterase activity. In this procedure, 0.1-1 mL of saliva (3.261 mg protein/mL) is incubated with 100 μL of acetylthiocholine iodide (0.018M) (lot #10H0653 Sigma) for 30-180 minute at 37° C. in 4.0 mL phosphate buffer (pH 7.8). After the incubation, a 0.2 mL of DTNB is added and the sample is read at 405 nm. The enzyme activity is calculated from glutathione standard curve (Table 9 and FIG. 9). Values for AChE activity in human saliva and enzyme kinetics are presented in Tables 10-14 and show in FIG. 10 through FIG. 14.
The AChE specific activity in saliva is about 4 nmol minute^−1 per mL of saliva. […] The percent of enzyme inhibition by organophosphate is calculated and presented in Tables 13-14 and showing in FIG. 15.

The mark [3] stands for this setting: 60 μg/mL, Test #2, 50 μL saliva, 20 min preincubation.
[4] abbreviates: 500 μg/ml, test #1, 200 μL saliva, 15 min preincubation, 37° C.
Where [5] appears, read: 240 μg of isofenphos in 4.0 mL, Test #2, 200 μL saliva, 37° C.
Where [6] appears, read: 22 μg/mL, Test #2, 50 μL saliva, 20 min preincubation.
The mark [7] stands for this setting: 29 μg/ml in Tris/Citrate, test #1, 200 μL saliva, 15 min preincubation, 37° C.

`CCOP(=S)(NC(C)C)Oc1ccccc1C(=O)OC(C)C` (centres unmarked) [Isofenphos, isofenphos]: in experiment [1] (setting [3]), the “% Act.” value is given as 92%; the “Absorb. at 400 nm for 65 min.” value was 2.0 and 1.1; the “Absorb. at 400 nm for 100 min.” value is 2.0 and 1.5. Besides, in experiment [1] (setting [4]), the “% Inhib.” value came out at 84%, the “Absorb. at 400 nm for 20 min.” value is “.33” and the “Absorb. at 400 nm for 60 min.” value is given as “.75”. Also, the “inhibition of carboxylase (in words)” value in experiment [1] is listed as “inhibited”. In addition, in experiment [2] (setting [5]), the “Absorb. at 405 nm for 50 min.” value was “.41”, the “Absorb. at 405 nm for 110 min.” value is recorded as “.43” and the “Absorb. at 405 nm for 165 min.” value is recorded as “.51”. In experiment [2] (240 μg of isofenphos in 4.0 mL, Test #2, 200 μL saliva, 37° C. (no inhibitor: 1.14)), this compound had an Activity of 1.02 nmol/min. The “inhibition of acetylcholinesterase (in words)” value in experiment [2] was “inhibited”.
Regarding `CCOP(=O)(OCC)Oc1ccc([N+](=O)[O-])cc1` [Paraoxon, paraoxon], in experiment [1] (setting [6]), the “% Act.” value stood at 40%, the “Absorb. at 400 nm for 20 min.” value is reported as “.23” and the “Absorb. at 400 nm for 100 min.” value is recorded as “.76”. In addition, in experiment [1] (setting [7]), the “% Inhib.” value came out at 99%, the “Absorb. at 400 nm for 20 min.” value was “.03” and the “Absorb. at 400 nm for 60 min.” value is on record as “.14”. Further, the “inhibition of carboxylase (in words)” value in experiment [1] is “inhibited”. Further, the “inhibition of acetylcholinesterase (in words)” value in experiment [2] is on record as “inhibited”.
